Laboratory results: patent US4044043A, “Derivatives of 9-oxo-13-trans-prostenoic acid esters” (American Cyanamid Company, priority 1975, dated 1977)
In brackets after ≈: the same amount, converted by molar mass.

Assays:
[1] = system: Mycobacterium smegmatis ATCC 606; assay: agar-dilution streak-plate antimicrobial assay; type: cell-based; conditions: Mycolicibacterium smegmatis, ATCC606, read-out: Minimal inhibitory conc. (6)
Summary of the method: (§1)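 Stock 2.5 mg/ml → two-fold serial dilutions → 1 ml each into 9 ml warm agar (bacterial or fungal medium) → loop streak of overnight broth culture or spore suspension → incubate → visual read. MIC = complete inhibition, µg/ml.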

[2] = system: Staphylococcus aureus Rose ATCC 14154; assay: agar-dilution streak-plate antimicrobial assay; type: cell-based; conditions: ATCC14154, read-out: Minimal inhibitory conc. (7)
Summary of the method: as §1

[3] = system: Streptococcus pyogenes C 203; assay: agar-dilution streak-plate antimicrobial assay; type: cell-based; conditions: C203, read-out: Minimal inhibitory conc. (8)
Summary of the method: as §1

[4] = system: Trichophyton mentagrophytes E 11; assay: agar-dilution streak-plate antimicrobial assay; type: cell-based; conditions: E11, read-out: Minimal inhibitory conc. (4)
Summary of the method: as §1

[5] = system: Trichophyton tonsurans NIH 662; assay: agar-dilution streak-plate antimicrobial assay; type: cell-based; conditions: NIH662, read-out: Minimal inhibitory conc. (3)
Summary of the method: as §1

gastric acid secretion = assay: Inhibition of Gastric Acid Secretion (Pylorous-Ligated Rat), Shay rat procedure; type: in vivo, rats (male, CFE strain); conditions: read-out: % Inhibition of Control Gastric Acid Secretion; for inhibition in vivo at 50 mg/kg: 50 mg./kg. intraduodenal; for inhibition in vivo at 100 mg/kg: 100 mg./kg. intraduodenal
Summary of the method: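 Male CFE rats were fasted 48 h, then pylorus-ligated under ether. Gastric contents were titrated with 0.02N or 0.04N NaOH to pH 8.4 for acid output, and ≥20% inhibition counted as active.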

[6] = system: bronchospasms elicited by 5-hydroxytryptamine; assay: Bronchodilator Activity (Konzett Assay) against 5-hydroxytryptamine; type: in vivo, guinea pigs; conditions: Cavia porcellus; three logarithmic cumulative intravenous doses
Summary of the method: (§2)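 Guinea pigs given intravenous spasmogen (5-hydroxytryptamine, histamine or acetylcholine) per Konzett procedure. ED50 derived from three logarithmic cumulative intravenous doses of test compound.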

[7] = system: bronchospasms elicited by acetylcholine; assay: Bronchodilator Activity (Konzett Assay) against acetylcholine; type: in vivo, guinea pigs; conditions: Cavia porcellus; three logarithmic cumulative intravenous doses
Summary of the method: as §2

[8] = system: Microsporum canis ATCC 10214; assay: agar-dilution streak-plate antimicrobial assay; type: cell-based; conditions: ATCC10214, read-out: Minimal inhibitory conc. (1)
Summary of the method: as §1

[9] = system: Microsporum gypseum ATCC 14683; assay: agar-dilution streak-plate antimicrobial assay; type: cell-based; conditions: Nannizzia gypsea, ATCC14683, read-out: Minimal inhibitory conc. (2)
Summary of the method: as §1

Trichophyton rubrum E 97 = assay: agar-dilution streak-plate antimicrobial assay; type: cell-based; conditions: E97, read-out: Minimal inhibitory conc. (5)
Summary of the method: as §1

Compound	MIC [1] [µg/mL]	MIC [2] [µg/mL]	MIC [3] [µg/mL]	MIC [4] [µg/mL]	MIC [5] [µg/mL]	MIC [8] [µg/mL]	MIC [9] [µg/mL]	MIC (Trichophyton rubrum E 97) [µg/mL]	inhibition in vivo at 50 mg/kg (gastric acid secretion) [%]	ED50 [6] [mg/kg]	ED50 [7] [mg/kg]	inhibition in vivo at 100 mg/kg (gastric acid secretion) [%]	inhibition in vivo at 200 mg/kg (gastric acid secretion; 200 mg./kg. intraduodenal) [%]
CCCCCC/C=C/[C@@H]1CCCC(=O)[C@H]1CCCCCCC(=O)O (relative stereo) [9-oxo-10a-homo-13-trans-prostenoic acid]	25 (≈ 74.3 µM)	100 (≈ 297 µM)	10 (≈ 29.7 µM)	100 (≈ 297 µM)	100 (≈ 297 µM)				80	> 10.1	> 10.1		
CC/C=C\CC/C=C/[C@@H]1CCC(=O)[C@H]1CCCCCCC(=O)O (relative stereo) [9-oxo-13-trans-17-cis-prostadienoic acid]	62 (≈ 193 µM)	250 (≈ 780 µM)	62 (≈ 193 µM)	62 (≈ 193 µM)	62 (≈ 193 µM)	125 (≈ 390 µM)	62 (≈ 193 µM)	125 (≈ 390 µM)		0.422	6	21	
CC(C)CC/C=C/[C@@H]1CCC(=O)[C@H]1CCCCCCC(=O)O (relative stereo) [17-methyl-9-oxo-19,20-dinor-13-trans-prostenoic acid]	62 (≈ 201 µM)	250 (≈ 810 µM)	62 (≈ 201 µM)	25 (≈ 81 µM)	25 (≈ 81 µM)	50 (≈ 162 µM)	50 (≈ 162 µM)	50 (≈ 162 µM)		2.8	4.3	28	
CCCCCCC/C=C/[C@@H]1CCC(=O)[C@H]1CCCCCCC(=O)O (relative stereo) [20-methyl-9-oxo-13-trans-prostenoic acid]	25 (≈ 74.3 µM)	50 (≈ 149 µM)	10 (≈ 29.7 µM)	25 (≈ 74.3 µM)	25 (≈ 74.3 µM)	100 (≈ 297 µM)	50 (≈ 149 µM)	100 (≈ 297 µM)		3.42	2.44	34	

More lines, in order of falling MIC [4], values ahead:

MIC [1] [µg/mL]	MIC [2] [µg/mL]	MIC [3] [µg/mL]	MIC [4] [µg/mL]	MIC [5] [µg/mL]	MIC [8] [µg/mL]	MIC [9] [µg/mL]	MIC (Trichophyton rubrum E 97) [µg/mL]	Compound	inhibition in vivo at 50 mg/kg (gastric acid secretion) [%]	ED50 [6] [mg/kg]	ED50 [7] [mg/kg]	inhibition in vivo at 100 mg/kg (gastric acid secretion) [%]	inhibition in vivo at 200 mg/kg (gastric acid secretion; 200 mg./kg. intraduodenal) [%]
		250 (≈ 892 µM)	250 (≈ 892 µM)	250 (≈ 892 µM)		250 (≈ 892 µM)		CCC/C=C/[C@H]1CCC(=O)[C@@H]1CCCCCCC(=O)O (relative stereo) [9-oxo-18,19,20-trinor-13-trans-prostenoic acid]	50	0.484	6.42	92	
			250 (≈ 794 µM)	250 (≈ 794 µM)	250 (≈ 794 µM)	250 (≈ 794 µM)	250 (≈ 794 µM)	O=C(O)CCCCCC[C@@H]1C(=O)CC[C@H]1/C=C/CCCCl (relative stereo) [20-chloro-9-oxo-17,18,19-trinor-13-trans-prostenoic acid]		1.48	3.87	34	
250 (≈ 700 µM)	250 (≈ 700 µM)	62 (≈ 174 µM)	62 (≈ 174 µM)	16 (≈ 44.8 µM)	250 (≈ 700 µM)	62 (≈ 174 µM)	62 (≈ 174 µM)	O=C(O)CCCCCC[C@H]1C(=O)CC[C@@H]1/C=C/CCCCCCCl (relative stereo) [20-chloro-9-oxo-13-trans-prostenoic acid]		2.39	4.82	56	
62 (≈ 192 µM)	250 (≈ 775 µM)	62 (≈ 192 µM)	50 (≈ 155 µM)	50 (≈ 155 µM)	50 (≈ 155 µM)	50 (≈ 155 µM)	250 (≈ 775 µM)	CCCCCC/C=C/[C@H]1CCC(=O)[C@@H]1CCCCCCC(=O)O (relative stereo) [9-oxo-13-trans-prostenoic acid]		0.077	1.02		69
62 (≈ 201 µM)	250 (≈ 810 µM)	62 (≈ 201 µM)	25 (≈ 81 µM)	25 (≈ 81 µM)	50 (≈ 162 µM)	50 (≈ 162 µM)	50 (≈ 162 µM)	CCCCC/C=C/[C@H]1CCC(=O)[C@@H]1CCCCCCC(=O)O (relative stereo) [9-oxo-20-nor-13-trans-prostenoic acid]		0.152	1.17	49	
